“Also recorded” adds a separate entry of the source.
Experiments:
[1] = tested on: barnacles; conditions: reported pharmacological compounds; cited from earlier work
[2] = adsorption of biocides onto CuO and ZnO nanoparticles in o-xylene, non-adsorbed biocide by HPLC-UV; type: physicochemical; conditions: biocide 50 mM
Protocol: To 50 ml of the solvent o-xylene, the biocide was added at a total concentration of 50 mM. Nano-particles (Sigma-Aldrich Sweden AB, Stockholm, Sweden) were then added in relevant concentrations according to the test protocol and after each addition the concentration of non-adsorbed Medetomidine (Orion Pharma, Helsinki, Finland) was measured with a standard HPLC-UV technique. The UV-absorbance maximum of Medetomidine was, from the literature, found to be 220 nm. Prior to the HPLC analysis the UV-absorbance maximum was investigated in order to verify the value given from the literature using a UV-spectrometer (GBC 920 UV/visible spectrometer, Scientific Equipments Ltd., Victoria, Australia).
The samples were analysed on a HPLC-UV system consisting of a Merck-Hitachi L-6200 pump (Merck-Hitachi, Darmstadt, Germany), a Supelco Discovery® (Sigma-Aldrich Sweden AB, Stockholm, Sweden) C18 (25 cm×4.6 mm, 5 m) column fitted with a prefilter (0.5 μm) and a Spectra-Physics Spectra 100 UV (Spectra-Physics Inc, Irvine Calif., USA) operating at 220 nm. The mobile phase was MilliQ-water:Acetonitrile (0.1% TFA v/v (mobile phase A): 0.1% TFA v/v (mobile phase B)) run over a gradient (6% B for two min then an increase up to 60% B in 15 min, a further increase up to 100% B in 3 min and then isocratic for 3 min before returning to the starting values in 2 min) at a flow rate of […]. The peak separation was monitored by UV (220 nm). Manual injections of 100 micro-liter were made and the data was collected and integrated using the Millenium software (version 3.20, 1999)(Waters Inc, Milford Mass., USA).

[3] = CuO (5 μm) instead of nanoparticle, o-xylene
Protocol: The different nanoparticles used (ZnO, CuO, Al2O3, MgO, TiO2, CO3O4) were bought from Sigma (Sigma-Aldrich Sweden AB, Stockholm, Sweden) and used without further purification. 50 ml of o-xylene was added to a beaker to which 50 mM of Medetomidine (Orion Pharma, Helsinki, Finland) was added. Nanoparticles were then added and after each addition the amount of free Medetomidine was measured with HPLC-UV (as in example 1 above).

Q: With O=C(c1ccc(F)cc1)C1CCN(CCn2c(=O)[nH]c3ccccc3c2=O)CC1 [Ketanserin] as the compound, how does the “effect on attachment / settlement of barnacles” value [1] read?
A: inhibitory properties

Q: With CCCCCCCCn1sc(Cl)c(Cl)c1=O [SeaNine, 4,5-dichloro-2-n-octyl-3(2H)-isothiazolone] as the compound, how does the “adsorption of antifouling agent onto nanoparticles” value [2] read?
A: exhibited adsorption

Q: Which “effect on attachment / settlement of barnacles” value [1] does the source give for CCCN1CCc2cccc3c2[C@H]1Cc1ccc(O)c(O)c1-3 [R (−)-NPA] here?
A: inhibitory properties

Q: Which “effect on attachment / settlement of barnacles” value [1] does the source give for CC(C)C[C@H]1C(=O)N2CCC[C@H]2[C@]2(O)O[C@](NC(=O)[C@@H]3C=C4c5cccc6[nH]c(Br)c(c56)C[C@H]4N(C)C3)(C(C)C)C(=O)N12 [(+)-Bromocriptine] here?
A: inhibitory properties

Q: Which “adsorption of antifouling agent onto nanoparticles” value [2] does the source give for Cc1cccc(C(C)c2cnc[nH]2)c1C (racemic) [Medetomidine, (S,R)-4(5)-[1-(2,3-dimethylphenyl)ethyl]-1H-imidazole] here?
A: Large fractions of Medetomidine are adsorbed already at low particle concentrations; also recorded: best adsorption

Q: What about the “Medetomidine adsorption onto micrometer sized particle” value [3] of the same compound?
A: negligible

Q: And the “effect on attachment / settlement of barnacles” value [1]?
A: efficient inhibitor

Q: Which “adsorption of antifouling agent onto nanoparticles” value [2] does the source give for CN(C)C(=O)Nc1ccc(Cl)c(Cl)c1 [diuron, 3-(3,4-dichlorophenyl)-1,1-dimethylurea] here?
A: exhibited adsorption

Q: Which “adsorption of antifouling agent onto nanoparticles” value [2] does the source give for CSc1nc(NC2CC2)nc(NC(C)(C)C)n1 [igarol, 2-methylthio-4-tert-butylamino-6-cyclopropylamino-s-triziane] here?
A: exhibited adsorption

Reference: patent US7662222B2, “Method and use of nanoparticles to bind biocides in paints” (I-Tech AB, priority 2005, dated 2010)
